{
  "source": "paper PMC12315900",
  "about": "“A twist in the tale: shifting from covalent targeting of a tyrosine in JAK3 to a lysine in MK2” (RSC Medicinal Chemistry, 2025)",
  "key": {"[1]": {"target": "T1, JAK3 (Homo sapiens, UniProt P52333)", "T1 sequence (P52333 1-1124)": "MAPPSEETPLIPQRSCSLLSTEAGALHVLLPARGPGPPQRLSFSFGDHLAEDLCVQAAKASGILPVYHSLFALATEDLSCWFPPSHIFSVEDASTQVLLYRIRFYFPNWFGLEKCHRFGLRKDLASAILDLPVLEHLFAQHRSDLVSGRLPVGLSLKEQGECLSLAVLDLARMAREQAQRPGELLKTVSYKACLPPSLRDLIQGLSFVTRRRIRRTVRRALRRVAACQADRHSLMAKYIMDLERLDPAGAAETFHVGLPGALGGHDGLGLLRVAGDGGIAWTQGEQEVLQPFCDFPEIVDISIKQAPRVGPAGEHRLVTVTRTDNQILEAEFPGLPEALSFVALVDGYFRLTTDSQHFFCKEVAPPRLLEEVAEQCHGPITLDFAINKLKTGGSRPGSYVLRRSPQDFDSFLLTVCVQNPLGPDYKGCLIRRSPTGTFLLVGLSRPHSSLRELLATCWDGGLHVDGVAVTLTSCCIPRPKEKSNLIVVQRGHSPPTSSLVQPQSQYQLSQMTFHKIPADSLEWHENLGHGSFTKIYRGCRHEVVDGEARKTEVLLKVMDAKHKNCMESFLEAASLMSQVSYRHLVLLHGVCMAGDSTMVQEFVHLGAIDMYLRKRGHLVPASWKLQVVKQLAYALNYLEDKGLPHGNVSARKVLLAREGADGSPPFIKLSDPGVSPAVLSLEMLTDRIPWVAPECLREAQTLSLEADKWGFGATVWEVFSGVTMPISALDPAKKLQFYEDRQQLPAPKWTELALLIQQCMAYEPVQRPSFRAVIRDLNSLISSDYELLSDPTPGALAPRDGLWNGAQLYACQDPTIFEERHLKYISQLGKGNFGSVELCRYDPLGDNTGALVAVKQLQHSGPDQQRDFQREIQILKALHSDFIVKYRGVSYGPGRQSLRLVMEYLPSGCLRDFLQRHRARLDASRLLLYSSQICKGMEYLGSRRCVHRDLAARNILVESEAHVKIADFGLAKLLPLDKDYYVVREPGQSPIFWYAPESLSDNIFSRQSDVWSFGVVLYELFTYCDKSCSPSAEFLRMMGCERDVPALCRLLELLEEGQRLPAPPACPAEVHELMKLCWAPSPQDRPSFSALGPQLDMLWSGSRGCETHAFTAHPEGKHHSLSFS", "assay": "biochemical"}, "[2]": {"assay": "solubility observation", "format": "physicochemical", "from_the_text": "While the warhead now cannot rotate away anymore, it also is very limited in the trajectory it can assume prior to/during the bond-forming event. On the other hand, the tyrosine side chain is also a rather rigid structure (especially considering the degrees of freedom of cysteine or e.g. lysine in comparison) and if two very rigid structures are supposed to react with each other, a proper pre-orientation and a binding mode that enables a strain-free reaction trajectory play a much bigger role than for the reaction of two more flexible moieties like, for example, acrylamide and cysteine."}, "[3]": {"target": "T1, JAK3", "conditions": "JAK3 ELISA, same assay conditions (starting at 10 μM)"}, "[4]": {"system": "MK2", "parameters": "method as in PMID 24900358", "conditions": "@100 μM ATP; cited from earlier work"}, "[5]": {"target": "MK2 (Homo sapiens, UniProt P49137)", "sequence (P49137 whole entry)": "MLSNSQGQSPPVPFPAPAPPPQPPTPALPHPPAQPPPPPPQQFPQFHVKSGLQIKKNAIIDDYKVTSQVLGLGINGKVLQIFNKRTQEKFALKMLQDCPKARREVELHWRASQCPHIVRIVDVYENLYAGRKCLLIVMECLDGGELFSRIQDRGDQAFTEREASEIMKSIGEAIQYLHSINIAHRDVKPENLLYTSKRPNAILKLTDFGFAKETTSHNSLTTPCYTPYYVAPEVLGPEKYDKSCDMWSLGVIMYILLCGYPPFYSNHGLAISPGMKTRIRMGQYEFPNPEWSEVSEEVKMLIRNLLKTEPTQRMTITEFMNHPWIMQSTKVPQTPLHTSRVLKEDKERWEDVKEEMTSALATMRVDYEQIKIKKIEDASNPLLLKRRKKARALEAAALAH", "assay": "biochemical"}, "[6]": {"target": "T2, MK2 (Homo sapiens, UniProt P49137, DEL216-236/P237G)", "T2 sequence (P49137 with tags, fused parts or gaps DEL216-236/P237G)": "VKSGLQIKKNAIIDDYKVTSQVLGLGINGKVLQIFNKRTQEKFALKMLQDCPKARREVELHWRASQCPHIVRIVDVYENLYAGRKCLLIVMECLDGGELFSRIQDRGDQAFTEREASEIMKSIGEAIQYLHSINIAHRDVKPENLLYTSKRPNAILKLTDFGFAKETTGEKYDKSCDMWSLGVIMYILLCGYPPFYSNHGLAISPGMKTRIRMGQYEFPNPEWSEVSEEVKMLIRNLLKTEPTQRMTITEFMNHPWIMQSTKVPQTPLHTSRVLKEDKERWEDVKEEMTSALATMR", "assay": "kinact/KI from time- and concentration-dependent intact protein MS", "experimental": "Determination of Kinetic Parameters\nkinact/KI was measured based on time- and concentration-dependent analysis of intact protein\nmass spectra using the bimolecular model described by the equations seen below, as reported\n[PI]: concentration of the protein-compound complex, [PI*]: concentration\nof the covalent protein-compound complex, [PI*] ≈ [PI] if kinact is relatively high. [P]0, [I]0:\nconcentration of initial protein and compound. t: incubation time(s).\nWhen reaching each time point of incubation\n(15 min, 30 min, 60 min, 120 min, 180 min), an aliquot of the reaction mixture was transferred into\n1 % formic acid in ddH2O using a multichannel pipette (10 µL of sample added to 90 µL\nddH2O/1% formic acid), to stop the reaction at the exact time point. MS was performed and %\noccupancy was calculated in the same way (see equations below).\ntime- and concentration -dependent % occupancy: import data as XY table. A nonlinear\nregression fit was chosen to fit the curves, kinact/KI was set up as the constraint type of “Shared\nvalue for all datasets”, initial value as 0, the rest settings are as default.\n𝑂𝑐𝑐𝑢𝑝𝑎𝑛𝑐𝑦 [%] = 𝐼𝑚𝑜𝑑 × 100\n[𝑃𝐼 ] = [𝑃]0[𝐼]0 ([𝑃] −[𝐼] )×𝑘 /𝐾 ×𝑡\n𝑂𝑐𝑐𝑢𝑝𝑎𝑛𝑐𝑦 [%] = [𝑃𝐼] × 100"}, "[7]": {"target": "T2, MK2", "assay": "intact protein MS with MK2 (covalent modification)", "conditions": "for Ratio [%] (AUC[mod]/(AUC[unmod]+AUC[mod])): 50 µM protein, 250 µM compound, room temperature, 3 hours, relative quantification from deconvoluted spectra; for covalent modification of MK2 (covalent binding): 5-fold excess compound over MK2, rt, 3 h", "experimental": "using a NanoDrop 2000 spectrophotometer (Thermo Scientific), with molar extinction coefficient\nand molecular weight specified using the \"other protein (E & MW)\" setting.\nat 4 °C for 24 hours. For the negative control, an equivalent volume of DMSO was added to the\nprotein solution. To quench the reaction, 0.1% formic acid in the double-distilled water (ddH₂O)\nwas added in a 1:10 ratio (v/v), followed by desalting of the samples using C8 stage tips with the\nMS data acquisition was carried out on a Time-of-Flight (TOF)\nLC/MS system (Agilent 6200 series) equipped with a positive electrospray ionization (ESI) source.\nA volume of 5 µL of the desalted sample was injected for mass spectrometry (MS) analysis. To\nprevent cross-sample contamination, blank injections were run between each sample. Data were\ndeconvoluted and analyzed using Agilent’s MassHunter Bioconfirm software, applying a scan\nrange of 600–2000 m/z, a mass range of 10–100 kDa, a mass step of 1 Da, and a baseline\nat room temperature for 3 hours. For the negative control, an equivalent volume of DMSO was\nadded to the protein solution. To quench the reaction, 0.1% formic acid in the double -distilled\nwater (ddH₂O) was added in a 1:10 ratio (v/v), followed by desalting of the samples using C8 stage\nThe UHPLC-system consisted of an Agilent\n(G1316C) and a valve drive (G1170A) equipped with a 2-pos 6-port valve for online desalting of the\nsamples. Mobile phase A (water + 0.1 % (v/v) formic acid) and mobile phase B (acetonitrile + 0.1\n% (v/v) formic acid) were used for gradient elution on a BIOshell Protein C4 HPLC column (5 cm x\n2.1 mm, 3.4 μm, 400 Å; Merck, Darmstadt, Germany). The flow rate was set to 1.0 mL/min with\nthe following gradient settings: 0−0.2 min: 10 % B, 0.2−2.2 min: 10−80 % B, 2.2−3 min: 80 % B,\nwhole analysis. The UHPLC-system was coupled to a TripleTOF 5600+ mass spectrometer from\nSciex (Darmstadt, Germany) using a Duospray ion source in positiveionization mode and the\nfollowing source and MS parameters: curtain gas (CUR): 30 psi, nebulizing gas (GS1): 50 psi,\nheater gas (GS2): 40 psi, ion spray floating voltage (ISVF): 5500 V, source temperature (TEM): 450\n°C, collision energy (CE): 30 V, declustering potential (DP): 230 V. The acquisition was performed\nin the TOF mode of the mass spectrometer using a mass range from 100 to 5000 m/z with an\naccumulation time of 100 ms. Moreover, the IntactProteinMode -script from Sciex was used to\noptimize MS settings for protein analysis. The Analyst TF 1.8.1 software and the PeakView\nsoftware 2.2.0 (both Sciex) were used for data acquisition and data analysis, respectively. Mass\nspectra were deconvoluted using the BioToolKit 2.2.0 software package.\nRelative quantification was performed with the area under curve (AUC) of each protein species in\nthe deconvoluted mass spectra with the PeakView software’s integration tool.\n𝑅𝑎𝑡𝑖𝑜 [%] = 𝐴𝑈𝐶[𝑚𝑜𝑑] × 100"}, "[8]": {"assay": "buffer stability at pH 7.4 (HPLC)", "format": "physicochemical", "conditions": "pH 7.4, over the incubation time"}},
  "data": [
    {"smiles": "N#Cc1cccc(-c2cn(C3CCCCC3)c3c2cnc2[nH]ccc23)c1", "note": "[compound 6]", "values": [
      {"measurement": "IC50", "setting": "[1]", "result": 5.2, "unit": "nM"}
    ]},
    {"smiles": "O=c1c2cc(OS(=O)(=O)F)ccc2c2cnc3[nH]ccc3c2n1C1CCCCC1", "note": "[compound 35]", "values": [
      {"measurement": "solubility", "setting": "[2]", "result": "low solubility"},
      {"measurement": "inhibitory activity", "setting": "[3]", "result": "no relevant inhibitory activity"}
    ]},
    {"smiles": "O=C(c1ccc(-c2ccc(Cl)cc2)o1)N(Cc1ccccn1)c1ccc(N2CCNCC2)cc1", "note": "[compound 41, reference compound]", "values": [
      {"measurement": "IC50", "setting": "[4]", "result": 110, "unit": "nM"},
      {"measurement": "IC50", "setting": "[5]", "result": "> 5", "unit": "µM"}
    ]},
    {"smiles": "O=C(c1ccc(-c2ccc(Cl)c(OS(=O)(=O)F)c2)o1)N(Cc1ccccn1)c1ccc(N2CCNCC2)cc1", "note": "[compound 42]", "values": [
      {"measurement": "kinact/KI", "setting": "[6]", "result": 1.12, "unit": "M⁻¹ s⁻¹"},
      {"measurement": "Ratio [%] (AUC[mod]/(AUC[unmod]+AUC[mod]))", "setting": "[7]", "result": 94.28, "unit": "%"},
      {"measurement": "covalent modification of MK2 (covalent binding)", "setting": "[7]", "result": 95, "unit": "%"}
    ]},
    {"smiles": "O=C(c1ccc(-c2ccc(Cl)cc2)o1)N(Cc1ccccn1)c1ccc(N2CCNCC2)c(OS(=O)(=O)F)c1", "note": "[compound 43]", "values": [
      {"measurement": "covalent modification of MK2 (covalent binding)", "setting": "[7]", "result": "no binding at all"}
    ]},
    {"smiles": "CC(C)(C)OC(=O)N1CCN(c2ccc(NC(=O)c3ccc(-c4ccc(Cl)cc4)o3)cc2S(=O)(=O)F)CC1", "note": "[compound 64]", "values": [
      {"measurement": "buffer stability", "setting": "[8]", "result": "some degradation"},
      {"measurement": "covalent modification of MK2 (covalent binding)", "setting": "[7]", "result": 15, "unit": "%"}
    ]},
    {"smiles": "O=C(c1ccc(-c2ccc(Cl)cc2)o1)N(Cc1ccccn1)c1ccc(N2CCNCC2)c(S(=O)(=O)F)c1", "note": "[compound 65]", "values": [
      {"measurement": "Ratio [%] (AUC[mod]/(AUC[unmod]+AUC[mod]))", "setting": "[7]", "result": 14.51, "unit": "%"},
      {"measurement": "covalent modification of MK2 (covalent binding)", "setting": "[7]", "result": 15, "unit": "%"}
    ]},
    {"smiles": "O=C(c1ccc(-c2ccc(Cl)c(O)c2)o1)N(Cc1ccccn1)c1ccc(N2CCNCC2)cc1", "note": "[compound 66]", "values": [
      {"measurement": "IC50", "setting": "[5]", "result": "> 5", "unit": "µM"}
    ]},
    {"smiles": "O=C(c1ccc(-c2ccc(Cl)cc2)o1)N(Cc1ccccn1)c1ccc(N2CCNCC2)c(O)c1", "note": "[compound 67]", "values": [
      {"measurement": "IC50", "setting": "[5]", "result": "> 5", "unit": "µM"}
    ]}
  ]
}
